Reference: ChEMBL document CHEMBL3120108, “Direct interaction of garcinol and related polyisoprenylated benzophenones of Garcinia cambogia fruits with the transcription factor STAT-1 as a likely mechanism of their inhibitory effect on cytokine signaling pathways” (J Nat Prod, 2014)
The source made the active and inactive calls. No cut-off for these calls is given here.

Tests used:
[1] = molecular target: T1, Signal transducer and activator of transcription 1-alpha/beta (Homo sapiens) (UniProt P42224); test: Inhibition of INFgamma-induced STAT1 activation in human […] cells assessed as reduction of STAT1-DNA binding activity preincubated for 30 mins followed by cytokine challenge measured after 60 mins by electrophoretic mobility shift assay; format: cell-based
T1 sequence (whole entry): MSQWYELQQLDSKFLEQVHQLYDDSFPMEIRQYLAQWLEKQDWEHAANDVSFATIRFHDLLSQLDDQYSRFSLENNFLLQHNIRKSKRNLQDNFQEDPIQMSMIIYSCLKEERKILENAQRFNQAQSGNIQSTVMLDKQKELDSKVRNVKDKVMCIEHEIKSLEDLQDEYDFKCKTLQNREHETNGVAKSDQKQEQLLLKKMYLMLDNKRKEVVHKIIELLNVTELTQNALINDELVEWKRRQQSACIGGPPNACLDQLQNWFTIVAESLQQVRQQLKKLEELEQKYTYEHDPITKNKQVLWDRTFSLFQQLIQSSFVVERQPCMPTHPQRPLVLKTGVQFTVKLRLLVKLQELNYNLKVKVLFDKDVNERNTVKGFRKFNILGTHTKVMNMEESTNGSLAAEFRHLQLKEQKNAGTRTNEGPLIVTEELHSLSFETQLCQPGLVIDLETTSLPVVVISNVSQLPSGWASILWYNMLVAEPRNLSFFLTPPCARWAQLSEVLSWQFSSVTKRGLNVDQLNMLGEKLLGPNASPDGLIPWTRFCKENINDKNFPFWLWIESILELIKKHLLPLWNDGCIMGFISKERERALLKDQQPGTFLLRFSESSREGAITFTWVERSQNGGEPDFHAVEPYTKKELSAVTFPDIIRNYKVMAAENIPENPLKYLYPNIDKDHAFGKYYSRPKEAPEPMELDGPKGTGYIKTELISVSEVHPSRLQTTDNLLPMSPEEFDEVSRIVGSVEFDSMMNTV

MDA-MB-231 [2] = test: Inhibition of TNFalpha-induced NFkappaB activation in human MDA-MB-231 cells assessed as reduction of NFkappaB-DNA binding activity at 50 uM preincubated for 30 mins followed by cytokine challenge measured after 60 mins by electrophoretic mobility shift assay; format: cell-based
[3] = molecular target: T1, Signal transducer and activator of transcription 1-alpha/beta (Homo sapiens); test: Inhibition of INFgamma-induced STAT1 activation in human […] cells assessed as reduction of STAT1-DNA binding activity at 50 uM preincubated for 30 mins followed by cytokine challenge measured after 60 mins by electrophoretic mobility shift assay; format: cell-based
INS-1E = test: Inhibition of TNFalpha-induced NFkappaB activation in rat INS-1E cells assessed as reduction of NFkappaB-DNA binding activity at 25 uM preincubated for 30 mins followed by cytokine challenge measured after 60 mins by electrophoretic mobility shift assay; format: cell-based
[4] = molecular target: T2, Signal transducer and activator of transcription 1 (Rattus norvegicus) (UniProt Q6P6Q7); test: Inhibition of INFgamma-induced STAT1 activation in rat INS-1E cells assessed as reduction of STAT1-DNA binding activity at 25 uM preincubated for 30 mins followed by cytokine challenge measured after 60 mins by electrophoretic mobility shift assay; format: cell-based
T2 sequence (whole entry): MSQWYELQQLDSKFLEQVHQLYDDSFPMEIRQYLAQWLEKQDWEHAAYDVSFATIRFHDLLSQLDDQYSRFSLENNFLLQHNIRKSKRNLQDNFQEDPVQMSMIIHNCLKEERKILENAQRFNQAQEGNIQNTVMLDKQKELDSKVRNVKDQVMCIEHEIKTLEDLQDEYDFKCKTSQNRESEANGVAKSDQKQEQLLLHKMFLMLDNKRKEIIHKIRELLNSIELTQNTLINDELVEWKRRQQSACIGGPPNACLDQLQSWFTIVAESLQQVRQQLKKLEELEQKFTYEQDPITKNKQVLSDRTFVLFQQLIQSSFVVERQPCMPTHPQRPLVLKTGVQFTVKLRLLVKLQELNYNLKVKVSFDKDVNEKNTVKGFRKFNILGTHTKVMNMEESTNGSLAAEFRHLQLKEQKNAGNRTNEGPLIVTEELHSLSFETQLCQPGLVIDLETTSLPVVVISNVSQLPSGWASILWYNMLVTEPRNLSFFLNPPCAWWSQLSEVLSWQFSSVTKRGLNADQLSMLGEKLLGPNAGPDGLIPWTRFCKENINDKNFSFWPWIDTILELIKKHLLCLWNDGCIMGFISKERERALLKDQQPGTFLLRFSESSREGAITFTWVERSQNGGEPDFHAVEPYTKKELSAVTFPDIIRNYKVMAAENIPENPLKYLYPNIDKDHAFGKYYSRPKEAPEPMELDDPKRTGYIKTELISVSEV

[5] = molecular target: T3, Signal transducer and activator of transcription 1-alpha/beta (Homo sapiens, UniProt P42224); test: Binding affinity to STAT1 (unknown origin) by surface plasmon resonance assay
T3 sequence (P42224 whole entry): T1 sequence (whole entry)

MDA-MB-231 [6] = test: Inhibition of TNFalpha-induced NFkappaB activation in human MDA-MB-231 cells assessed as reduction of NFkappaB-DNA binding activity preincubated for 30 mins followed by cytokine challenge measured after 60 mins by electrophoretic mobility shift assay; format: cell-based
[7] = molecular target: T1, Signal transducer and activator of transcription 1-alpha/beta (Homo sapiens); test: Inhibition of INFgamma-induced STAT1 activation in human […] cells assessed as reduction of STAT1-DNA binding activity at 25 uM preincubated for 30 mins followed by cytokine challenge measured after 60 mins by electrophoretic mobility shift assay; format: cell-based
[8] = molecular target: T2, Signal transducer and activator of transcription 1 (Rattus norvegicus); test: Inhibition of INFgamma-induced STAT1 activation in rat INS-1E cells assessed as reduction of STAT1-DNA binding activity at 10 uM preincubated for 30 mins followed by cytokine challenge measured after 60 mins by electrophoretic mobility shift assay; format: cell-based
[9] = molecular target: T1, Signal transducer and activator of transcription 1-alpha/beta (Homo sapiens); test: Inhibition of STAT1 in human […] cells assessed as suppression of INFgamma-induced SOCS-1 expression at 25 to 40 uM by Northern blotting technique; format: cell-based

| SMILES | inhibition [1] | inhibition (MDA-MB-231 [2]) | inhibition [3] | inhibition (INS-1E) | inhibition [4] | Kd [5] [µM] | inhibition (MDA-MB-231 [6]) | inhibition [7] | inhibition [8] | inhibition [9] |
| --- | --- | --- | --- | --- | --- | --- | --- | --- | --- | --- |
| CC(C)=CCC/C(C)=C/C[C@@]12C[C@H](CC=C(C)C)C(C)(C)[C@@](CC=C(C)C)(C(=O)C(C(=O)c3ccc(O)c(O)c3)=C1O)C2=O | Dose-dependent effect | inactive | Active | inactive | inactive | 4.67 |  |  |  |  |
| O=C(O[C@@H]1Cc2c(O)cc(O)cc2O[C@@H]1c1cc(O)c(O)c(O)c1)c1cc(O)c(O)c(O)c1 [EPIGALOCATECHIN GALLATE] |  |  |  |  |  | 0.7 |  |  |  |  |
| C=C(C)[C@@H](CC=C(C)C)C[C@@]12C[C@@H](CC=C(C)C)C(C)(C)[C@@](CC=C(C)C)(C(=O)C(C(=O)c3ccc(O)c(O)c3)=C1O)C2=O [GARCINOL] | Dose-dependent effect | Active |  | Active | Active | 16.9 | Dose-dependent effect | Active |  |  |
| CC(C)=CCC[C@@]1(C)[C@H](CC=C(C)C)C[C@]2(CC=C(C)C)C(=O)[C@@]1(CC=C(C)C)C(=O)C(C(=O)c1ccc(O)c(O)c1)=C2O [GUTTIFERONE K] | Dose-dependent effect |  | Active |  | Active | 20.6 |  |  | Active | Active |
